Assay results reported in patent US20180155757A1, “IDENTIFICATION OF BACTERIA THAT ARE RESISTANT TO CARBAPENEMS BY MEMBRANE IMPERVIOUSNESS” (BIOMÉRIEUX, priority 2015, published 2018).
Like-named read-outs stand apart in the source and are kept apart here.

How the values were obtained:
Assay in all cases: Etest MIC of indicator carbapenems on MH II agar without/with PMBN
Format in all cases: cell-based
[1] = system: E. cloacae 1008074 (VIM producer)
Description: (§1) The determinations of antibiotic MIC were carried out on solid culture media with the Etest® method. To do this, Etest® strips (bioMérieux, France) were used: • Etest® Imipenem IM 32, and • Etest® Ertapenem ETP 32, and also solid culture media, differing from one another by virtue of their non-inhibitory concentrations of PMBN.
(§2) These solid culture media are prepared in Petri dishes (0=145 mm; V=50 ml) on a base of MH II Agar (Becton Dickinson®, United States), more or less supplemented with PMBN. The PMBN concentrations range from 0 up to concentrations equivalent to one fifth of the MIC of PMBN (⅕ MICPMBN).
(§3) Using a swab and the Retro C80™ rota-plater (bioMérieux, France), the culture media were inoculated with the bacteria, originating from an inoculum of 0.5 McFarland, prepared in 0.85% NaCl solution from colonies subcultured the day before on MH II agar.
(§4) The various Etest® strips are then deposited on the surface of the culture media. After 16 to 20 hours of incubation at 35° C., the MICS were read.
(§5) By way of indicator carbapenems according to the invention, in addition to imipenem (IM) and ertapenem (ETP), meropenem (MP) was also tested. Like the other two antibiotics, meropenem was used in the form of Etest® strips (Etest® Meropenem MP 32 from the company bioMérieux, France).
(§6) The methods used to prepare the new culture media and to carry out the antibiotic-sensitivity tests are identical to those described above.

[2] = system: K. pneumoniae 1204039 (membrane impermeability)
Description: as §1, §2, §3, §4, §5, §6

[3] = system: K. pneumoniae 1108003 (KPC-3 producer)
Description: as §1, §2, §3, §4, §5, §6

[4] = system: K. pneumoniae 1103183 (NDM producer)
Description: as §1, §2, §3, §4, §5, §6

[5] = system: K. pneumoniae 1204035 (membrane impermeability); details: in µg/mL
Description: as §1, §2, §3, §4, §5, §6

[6] = system: E. cloacae 1008080 (IMP producer); details: in µg/mL
Description: as §1, §2, §3, §4, §5, §6

[7] = system: K. pneumoniae 1012142 (KPC-2 producer)
Description: as §1, §2, §3, §4, §5, §6

[8] = system: K. pneumoniae 1204036 (membrane impermeability)
Description: as §1, §2, §3, §4, §5, §6

[9] = system: K. pneumoniae KP 63 (porin−); details: Klebsiella pneumoniae
Description: as §1, §2, §3, §4, §5, §6

[10] = system: Enterobacter aerogenes EA 5 (porin−); details: Klebsiella aerogenes
Description: as §1, §2, §3, §4, §5, §6

[11] = system: E. cloacae 1204051 (membrane impermeability)
Description: as §1, §2, §3, §4, §5, §6

[12] = system: Enterobacter aerogenes EA 27 (porin−); details: Klebsiella aerogenes, read-out: MIC
Description: as §1, §2, §3, §4, §5, §6

[13] = system: E. cloacae 1204056 (membrane impermeability)
Description: as §1, §2, §3, §4, §5, §6

[14] = system: E. cloacae 1204052 (membrane impermeability)
Description: as §1, §2, §3, §4, §5, §6

[15] = system: E. cloacae 1204053 (membrane impermeability)
Description: as §1, §2, §3, §4, §5, §6

[16] = system: E. cloacae 1109137 (OXA-48 producer)
Description: as §1, §2, §3, §4, §5, §6

[17] = system: E. coli SAB 100 (porin−); details: Escherichia coli
Description: as §1, §2, §3, §4, §5, §6

[18] = system: E. coli SAB 108 (porin−); details: Escherichia coli
Description: as §1, §2, §3, §4, §5, §6

[19] = system: E. cloacae 1204058 (membrane impermeability); details: in µg/mL
Description: as §1, §2, §3, §4, §5, §6

SMILES: C[C@@H](O)[C@H]1C(=O)N2C(C(=O)O)=C(SCCN=CN)C[C@H]12 [IM, imipenem]
- MIC ([1]; [PMBN] 0, Table 4a): 3 mg/L
- MIC ([1]; [PMBN] 100, Table 4a): 3 mg/L
- MIC ([1]; [PMBN] 200, Table 4a): 8 mg/L
- MIC ([1]; [PMBN] 300, Table 4a): 6 mg/L
- MIC ([2]; [PMBN] 0, Table 4a): 0.38 mg/L
- MIC ([2]; [PMBN] 100, Table 4a): 0.38 mg/L
- MIC ([2]; [PMBN] 200, Table 4a): 0.38 mg/L
- MIC ([2]; [PMBN] 300, Table 4a): 0.38 mg/L
- MIC ([3]; [PMBN] 0, Table 4a): 6 mg/L
- MIC ([3]; [PMBN] 100, Table 4a): 8 mg/L
- MIC ([3]; [PMBN] 200, Table 4a): 12 mg/L
- MIC ([3]; [PMBN] 300, Table 4a): 12 mg/L
- MIC ([4]; [PMBN] 0, Table 4a): 24 mg/L
- MIC ([4]; [PMBN] 100, Table 4a): > 32 mg/L
- MIC ([4]; [PMBN] 200, Table 4a): > 32 mg/L
- MIC ([4]; [PMBN] 300, Table 4a): 6 mg/L
- MIC ([5]; [PMBN] 0, Table 4a): 1.5
- MIC ([5]; [PMBN] 100, Table 4a): 0.75
- MIC ([5]; [PMBN] 200, Table 4a): 0.5-0.75
- MIC ([5]; [PMBN] 300, Table 4a): 0.5-1
- MIC ([6]; [PMBN] 0, Table 4a): 1
- MIC ([6]; [PMBN] 100, Table 4a): 12
- MIC ([6]; [PMBN] 200, Table 4a): 3
- MIC ([6]; [PMBN] 300, Table 4a): 6
- MIC ([7]; [PMBN] 0, Table 4a): > 32 mg/L
- MIC ([7]; [PMBN] 100, Table 4a): > 32 mg/L
- MIC ([7]; [PMBN] 200, Table 4a): > 32 mg/L
- MIC ([7]; [PMBN] 300, Table 4a): > 32 mg/L
- MIC ([8]; [PMBN] 0, Table 4a): 2 mg/L
- MIC ([8]; [PMBN] 100, Table 4a): 2 mg/L
- MIC ([8]; [PMBN] 200, Table 4a): 2 mg/L
- MIC ([8]; [PMBN] 300, Table 4a): 1.5 mg/L
- MIC ([9]; [PMBN] 0): 0.25 mg/L
- MIC ([9]; [PMBN] 50 μg/ml): 0.25 mg/L
- MIC ([9]; [PMBN] 100 μg/ml): 0.125 mg/L
- MIC ([9]; [PMBN] 150 μg/ml): 0.125 mg/L
- MIC ([9]; [PMBN] 200 μg/ml): 0.125 mg/L
- MIC ([10]; E. aerogenes EA 5 (porin−), [PMBN] 0, Table 4): 6 mg/L
- MIC ([10]; E. aerogenes EA 5 (porin−), [PMBN] 50 μg/ml): 4 mg/L
- MIC ([10]; E. aerogenes EA 5 (porin−), [PMBN] 100 μg/ml): 4 mg/L
- MIC ([10]; E. aerogenes EA 5 (porin−), [PMBN] 150 μg/ml): 4 mg/L
- MIC ([10]; E. aerogenes EA 5 (porin−), [PMBN] 200 μg/ml): 3 mg/L
- MIC ([10]; EA 5 (porin−), [PMBN] 0, Table 2): 4 mg/L
- MIC ([10]; EA 5 (porin−), [PMBN] MIC/5): 2 mg/L
- MIC ([10]; EA 5 (porin−), [PMBN] MIC/8): 2 mg/L
- MIC ([10]; EA 5 (porin−), [PMBN] MIC/10): 2 mg/L
- MIC ([11]; [PMBN] 0, Table 4a): 1.5 mg/L
- MIC ([11]; [PMBN] 100, Table 4a): 1.5 mg/L
- MIC ([11]; [PMBN] 200, Table 4a): 0.75 mg/L
- MIC ([11]; [PMBN] 300, Table 4a): 0.75 mg/L
- MIC ([12]; E. aerogenes EA 27 (porin−), [PMBN] 0, Table 4): 12 mg/L
- MIC ([12]; E. aerogenes EA 27 (porin−), [PMBN] 50 μg/ml): 6 mg/L
- MIC ([12]; E. aerogenes EA 27 (porin−), [PMBN] 100 μg/ml): 3 mg/L
- MIC ([12]; E. aerogenes EA 27 (porin−), [PMBN] 150 μg/ml): 3 mg/L
- MIC ([12]; E. aerogenes EA 27 (porin−), [PMBN] 200 μg/ml): 3 mg/L
- MIC ([12]; EA 27 (porin−), [PMBN] 0, Table 2): 8 mg/L
- MIC ([12]; EA 27 (porin−), [PMBN] MIC/5): 0.03 mg/L
- MIC ([12]; EA 27 (porin−), [PMBN] MIC/8): 0.06 mg/L
- MIC ([12]; EA 27 (porin−), [PMBN] MIC/10): 8 mg/L
- MIC ([13]; [PMBN] 0, Table 4a): 6 mg/L
- MIC ([13]; [PMBN] 100, Table 4a): 2 mg/L
- MIC ([13]; [PMBN] 200, Table 4a): 1.5 mg/L
- MIC ([13]; [PMBN] 300, Table 4a): 1 mg/L
- MIC ([14]; [PMBN] 0, Table 4a): 3 mg/L
- MIC ([14]; [PMBN] 100, Table 4a): 3 mg/L
- MIC ([14]; [PMBN] 200, Table 4a): 2 mg/L
- MIC ([14]; [PMBN] 300, Table 4a): 1.5 mg/L
- MIC ([15]; [PMBN] 0, Table 4a): 3 mg/L
- MIC ([15]; [PMBN] 100, Table 4a): 3 mg/L
- MIC ([15]; [PMBN] 200, Table 4a): 3 mg/L
- MIC ([15]; [PMBN] 300, Table 4a): 3 mg/L
- MIC ([16]; [PMBN] 0, Table 4a): 1.5 mg/L
- MIC ([16]; [PMBN] 100, Table 4a): 4 mg/L
- MIC ([16]; [PMBN] 200, Table 4a): 2 mg/L
- MIC ([16]; [PMBN] 300, Table 4a): 1.5 mg/L
- MIC ([17]; [PMBN] 0): 0.5 mg/L
- MIC ([17]; [PMBN] 50 μg/ml): 0.38 mg/L
- MIC ([17]; [PMBN] 100 μg/ml): 0.25 mg/L
- MIC ([17]; [PMBN] 150 μg/ml): 0.19 mg/L
- MIC ([17]; [PMBN] 200 μg/ml): 0.19 mg/L
- MIC ([18]; [PMBN] 0): 0.75 mg/L
- MIC ([18]; [PMBN] 50 μg/ml): 0.38 mg/L
- MIC ([18]; [PMBN] 100 μg/ml): 0.25 mg/L
- MIC ([18]; [PMBN] 150 μg/ml): 0.25 mg/L
- MIC ([18]; [PMBN] 200 μg/ml): 0.19 mg/L
- MIC ([19]; [PMBN] 0, Table 4a): >32
- MIC ([19]; [PMBN] 100, Table 4a): 12
- MIC ([19]; [PMBN] 200, Table 4a): 4
- MIC ([19]; [PMBN] 300, Table 4a): 3
